# Experimental data: EP0259838A2, “Pharmaceutical composition containing A 1,4-dihydropyridine derivative and an acylated 1,2,3,4-tetrahydroisoquinoline-3-carboxylic acid” (priority 1986, dated 1988)
# Experiments:
# Renal Hypertensive Rats = assay: Antihypertensive activity in renal hypertensive rats (tail-cuff systolic blood pressure and heart rate); type: in vivo, rats (Male Sprague-Dawley); conditions: single dose po, nicardipine 3 mg/kg, ACE inhibitor 10 mg/kg, combination 3 + 10 mg/kg, n = 6
# Description: Twenty-four renal hypertensive rates (Male Sprague-Dawley, 140-170g) showing systolic blood pressure of 160 mmHg or greater were chosen for the study. Using the random block design, they were distributed into four groups: 3 groups for compound treatments and one for vehicle control. They were randomly assigned to the treatments. The test compounds were dissolved in deionized water at concentrations such that 1.0 ml of solution was administered per 100 grams of body weight.
# At approximately 17 hours prior to dosing, food was removed from the rat cages. On the morning of testing, the rats were dosed with the assigned compound or vehicle by gavage. Immediately after dosing, the rats were put in restrainers and placed in a heated chamber, 30 degrees centrigrade, for four hours. After the four hour reading, the rats were returned to their home cage for 3 hours and then were put in the restrainer again for the hour 8 reading.
# Using a tail blood pressure cuff, blood pressure curves and tail pulses were simultaneously monitored on a 4-channel MFE recorder digitized by a computer system. At least four consecutive traces (at 30 second intervals) were recorded for each rat at 1, 2, 4 and 8 hour post-dose.
# The computer system has been programmed to find systolic blood pressure (mmHg) and heart rate (beats/min) for each recording and them calculate the mean SBP and the mean HR of each rat at each observation time. Manual editing and confirmation of the analyses were carried out by the investigator on any systolic blood pressure traces that were more than two standard deviations outside the mean blood pressure readings for that animal at a given time period.
# The SBP's of the animals in each dose group were compared to the SBP's of the animals in the control group at each observation time using oneway analysis of variance. Significance was determined using the Dunnet test.
# CD rats = conditions: rat, in vivo; cited from earlier work
SMILES,HR % Chg (Chg from Control) (Renal Hypertensive Rats; 1 Hr post-dose) [%],HR b/min. Chg (Chg from Control) (Renal Hypertensive Rats; 1 Hr post-dose) [b/min.],SBP % Chg (Chg from Control) (Renal Hypertensive Rats; 1 Hr post-dose) [%],SBP mmHg Chg (Chg from Control) (Renal Hypertensive Rats; 1 Hr post-dose) [mmHg],HR % Chg (Chg from Control) (Renal Hypertensive Rats; 2 Hr post-dose) [%],HR b/min. Chg (Chg from Control) (Renal Hypertensive Rats; 2 Hr post-dose) [b/min.],SBP % Chg (Chg from Control) (Renal Hypertensive Rats; 2 Hr post-dose) [%],SBP mmHg Chg (Chg from Control) (Renal Hypertensive Rats; 2 Hr post-dose) [mmHg],HR % Chg (Chg from Control) (Renal Hypertensive Rats; 4 Hr post-dose) [%],HR b/min. Chg (Chg from Control) (Renal Hypertensive Rats; 4 Hr post-dose) [b/min.],SBP % Chg (Chg from Control) (Renal Hypertensive Rats; 4 Hr post-dose) [%],SBP mmHg Chg (Chg from Control) (Renal Hypertensive Rats; 4 Hr post-dose) [mmHg],HR % Chg (Chg from Control) (Renal Hypertensive Rats; 8 Hr post-dose) [%],HR b/min. Chg (Chg from Control) (Renal Hypertensive Rats; 8 Hr post-dose) [b/min.],SBP % Chg (Chg from Control) (Renal Hypertensive Rats; 8 Hr post-dose) [%],SBP mmHg Chg (Chg from Control) (Renal Hypertensive Rats; 8 Hr post-dose) [mmHg],clinical sign noted previously in studies in rats (CD rats)
"CCOC(=O)[C@H](CCc1ccccc1)N[C@@H](C)C(=O)N1Cc2cc(OC)c(OC)cc2C[C@H]1C(=O)O [2-{2-[(1-ethoxycarbonyl)-3-phenylpropyl]amino}-1-oxopropyl-1,2,3,4-tetrahydro-6,7-dimethoxy-3-isoquinoline carboxylic acid]",29,87,-8,-14,4,11,-7,-13,4,10,3,4,-11,-33,-7,-12,
"COC(=O)C1=C(C)NC(C)=C(C(=O)OCCN(C)Cc2ccccc2)C1c1cccc([N+](=O)[O-])c1 (stereo not drawn) [nicardipine, 2,6-dimethyl-4-(3ʹ-nitrophenyl)-1,4-dihydropyridine-3,5-dicarboxylic acid-3-methyl ester-5-β-(N-benzyl-N-methylamino)-ethyl ester]",22,65,-3,-5,10,30,-4,-7,9,25,-6,-10,-2,-4,-20,-35,pink skin (peripheral vasodilation)
